From paper PMC8307647, “Bio-Guided Fractionation of Stem Bark Extracts from Phyllanthus muellarianus: Identification of Phytocomponents with Anti-Cholinesterase Activity” (Molecules, 2021)
Read-outs that look alike come from different tables or passages of the source.

Tests used:
BuChE from human serum = BuChE from human serum (Homo sapiens, UniProt P06276); test: biochemical; type: biochemical; settings: for inhibition at 100 µg/mL: read-out: Inhibition hBuChE at 100 µg/mL % ± SD
Human recombinant AChE = Human recombinant AChE (Homo sapiens, UniProt P22303); test: biochemical; settings: for inhibition at 100 µg/mL: read-out: Inhibition hAChE at 100 µg/mL % ± SD
male Swiss mice = test system: male Swiss mice; parameters: method as in PMID 29186770; settings: single dose 20 mg kg−1 b.w.; cited from earlier work
Aβ1–42 = test system: T1, Aβ1–42; test: Inhibition of Aβ1–42 self-aggregation, thioflavin T fluorescence assay; type: biochemical; settings: 1:1 molar ratio with Aβ (50 μM), 30 °C, 24 h
T1 construct: 42-aminoacid long Aβ peptide (Aβ1–42) self-aggregation; purchased Bachem AG, Bubendorf, Switzerland
Procedure: As reported in the previously published protocol by Bartolini et al., 1,1,1,3,3,3,hexafluoro 2-propanol pre-treated Aβ1–42 samples (Bachem AG, Bubendorf, Switzerland) were solubilized with a AcCN/0.3 mM Na2CO3/250 mM NaOH (48.4/48.4/3.2) mixture to obtain a 500 μM stock solution. Experiments were performed by diluting (final Aβ concentration 50 μM) and incubating the peptide in 10 mM phosphate buffer (pH = 8.0) containing 10 mM NaCl, at 30 °C for 24 h with and without nitidine (50 μM, Aβ/nitidine = 1/1). A blank sample containing nitidine was also prepared. To quantify amyloid fibril formation, the thioflavin T fluorescence method was used. After incubation, samples were diluted to a final volume of 2.0 mL with 50 mM glycine-NaOH buffer (pH 8.5) containing 1.5 μM thioflavin T. A 300-second time scan of fluorescence intensity was carried out (λexc = 446 nm; λem = 490 nm, FP-6200 fluorometer, Jasco Europe, Cremella, Italy), and values at plateau were averaged after subtracting the background fluorescence of 1.5 μM thioflavin T solution. The fluorescence intensities obtained in the absence and in the presence of nitidine were compared and the percent inhibition due to the presence of nitidine was calculated by the following formula: 100 − (100 × IFi/IFo), where IFi and IFo are the fluorescence intensities obtained for Aβ1–42 in the presence and in the absence of nitidine, respectively.

Aβ = settings: cited from earlier work
human cholinesterases = settings: cited from earlier work

Chain of Human recombinant AChE (P22303 32-614): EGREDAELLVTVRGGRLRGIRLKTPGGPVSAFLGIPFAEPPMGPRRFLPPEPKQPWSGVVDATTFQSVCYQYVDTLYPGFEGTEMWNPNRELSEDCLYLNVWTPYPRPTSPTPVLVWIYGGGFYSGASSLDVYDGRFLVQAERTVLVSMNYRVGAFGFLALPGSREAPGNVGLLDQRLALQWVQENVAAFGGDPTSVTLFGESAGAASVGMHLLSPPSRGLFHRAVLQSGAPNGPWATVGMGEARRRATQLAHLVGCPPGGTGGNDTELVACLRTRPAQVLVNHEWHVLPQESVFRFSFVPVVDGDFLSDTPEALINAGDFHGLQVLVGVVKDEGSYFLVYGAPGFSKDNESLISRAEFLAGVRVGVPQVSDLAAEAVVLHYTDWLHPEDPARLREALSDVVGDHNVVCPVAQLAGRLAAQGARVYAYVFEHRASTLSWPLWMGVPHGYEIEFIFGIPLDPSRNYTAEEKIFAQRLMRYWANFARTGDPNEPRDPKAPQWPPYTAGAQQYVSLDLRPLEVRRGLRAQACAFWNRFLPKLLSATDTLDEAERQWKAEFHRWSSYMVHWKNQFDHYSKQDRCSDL
Chain of BuChE from human serum (P06276 29-602): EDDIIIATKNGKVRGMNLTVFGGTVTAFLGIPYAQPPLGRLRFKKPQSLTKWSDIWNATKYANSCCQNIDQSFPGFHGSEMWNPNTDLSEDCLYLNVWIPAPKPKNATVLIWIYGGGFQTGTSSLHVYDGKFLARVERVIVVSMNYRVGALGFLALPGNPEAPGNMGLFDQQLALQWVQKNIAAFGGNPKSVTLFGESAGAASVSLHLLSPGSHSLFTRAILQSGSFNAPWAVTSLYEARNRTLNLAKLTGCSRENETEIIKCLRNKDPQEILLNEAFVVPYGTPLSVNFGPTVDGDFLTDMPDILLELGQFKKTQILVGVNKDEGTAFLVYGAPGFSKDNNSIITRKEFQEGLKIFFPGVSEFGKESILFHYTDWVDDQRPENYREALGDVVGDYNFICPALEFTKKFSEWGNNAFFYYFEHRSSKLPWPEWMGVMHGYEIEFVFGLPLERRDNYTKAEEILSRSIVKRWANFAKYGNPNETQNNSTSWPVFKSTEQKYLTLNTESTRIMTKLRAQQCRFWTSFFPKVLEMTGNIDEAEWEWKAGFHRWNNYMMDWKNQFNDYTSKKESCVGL

In the case of COc1ccc2c3c1O[C@H]1C[C@@H](O)C=C[C@@]31CCN(C)C2 [Galanthamine, reference compound], the inhibition at 100 µg/mL (BuChE from human serum) is reported as > 90%.
For COc1ccc2c(c1O)-c1c(O)c(OC)cc3c1[C@H](C2)[N+](C)(C)CC3 [Magnoflorine (PC1), Magnoflorine], the IC50 (Human recombinant AChE; read-out: IC50 hAChE µM ± SD) is given as 1120 ± 83 µM, the inhibition at 100 µg/mL (Human recombinant AChE) is given as 19 ± 2.9% and the “cognitive functions in a passive avoidance test” value (male Swiss mice) is given as “significantly enhanced”. The “long-term scopolamine-induced memory impairment” value (male Swiss mice) was “able to reverse”, the IC50 (BuChE from human serum; read-out: IC50 hBuChE µM ± SD) was 131 ± 9 µM and the inhibition at 100 µg/mL (BuChE from human serum) was 69.9 ± 2.4%. For the same molecule, the selectivity index (BuChE from human serum; selective for hBuChE over hAChE) was 8.5.
For COc1cc2c[n+](C)c3c4cc5c(cc4ccc3c2cc1OC)OCO5 [Nitidine (PC3), 2,3-dimethoxy-12-methyl-[1,3]benzodioxolo[5,6-c]phenanthridin-12-ium], the IC50 (Human recombinant AChE) was 5.31 ± 0.5 µM, the inhibition at 100 µg/mL (Human recombinant AChE) was > 90% and the “inhibition percentage of Aβ1–42 self-aggregation” value (Aβ1–42) was 15.9 ± 1.0. The IC50 (BuChE from human serum) was 6.68 ± 0.13 µM and the inhibition at 100 µg/mL (BuChE from human serum) was > 90%.
For COc1ccc2c(c[n+](C)c3c4cc5c(cc4ccc23)OCO5)c1OC [chelerythrine, 1,2-dimethoxy-12-methyl[1,3]benzodioxolo[5,6-c]phenanthridin-12-ium], the “inhibition of Aβ self-aggregation” value (Aβ) is given as “significantly inhibit” and the “inhibition of human cholinesterases” value (human cholinesterases) is given as “micromolar inhibitor”.
